According to the supplement of paper PMC11451515:

Experiments:
Settings in all cases: 48 h
P12-Ichikawa [1] = assay: AUC of viability dose-response curve (% viability x log10 dose units); higher = less sensitive
Outline: (§1)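 Over 48 h at 37°C, leukemia cells in 1536-well plates (500 or 1000 cells/well), adapted to each medium, received library compounds in DMSO at 11 threefold doses from 47 μM to 0.79 nM. CellTiter-Glo One luminescence, normalised per plate to DMSO and cell-free wells, was fitted by a four-parameter log-logistic function of log10 dose. The area under the curve was then integrated by trapezoidal rule, after scaling curves above full viability and removing those that failed quality control.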

SEM cells [2] = assay: as above
Outline: as §1

NOMO1 [3] = assay: as above
Outline: as §1

P12-Ichikawa [4] = assay: cell viability relative to DMSO control; higher = less cytotoxic
Outline: (§2)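 Before seeding, each leukemia line was adapted for at least four passages in each medium. NOMO1 or SEM cells (500 cells/well) and P12-Ichikawa cells (1000 cells/well) went into 1536-well plates at 5 μl, then received library compounds in DMSO by pin dosing across 11 threefold concentrations, 47 μM to 0.79 nM. Readout was CellTiter-Glo One luminescence after 48 h at 37°C, and viability is given as a per-plate percentage of DMSO wells, with cell-free wells as background.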

SEM cells [5] = assay: as above
Outline: as §2

NOMO1 [6] = assay: as above
Outline: as §2

CN1CCN(CC1)C2=CC3=C([NH]C(=N3)C/4=C(\N)C5=C(F)C=CC=C5NC4=O)C=C2
AUC of viability dose-response curve
Settings | NOMO1 [3] | P12-Ichikawa [1] | SEM cells [2]
HPLM + 10% dialyzed FBS | 418 | 420 | 161
RPMI 5 mM glucose + 10% FBS | 440 | 395 | 178
RPMI 5 mM glucose + 10% dialyzed FBS | 433 | 399 | 152

cell viability [%]
Settings | NOMO1 [6] | P12-Ichikawa [4] | SEM cells [5]
HPLM + 10% dialyzed FBS, 0.000781 µM | 104 | 103 | 39.9
HPLM + 10% dialyzed FBS, 0.00234 µM | 99.7 | 106 | 48.9
HPLM + 10% dialyzed FBS, 0.00702 µM | 98.5 | 109 | 44.5
HPLM + 10% dialyzed FBS, 0.0211 µM | 97.4 | 99.2 | 45.4
HPLM + 10% dialyzed FBS, 0.0632 µM | 96.3 | 88.7 | 31
HPLM + 10% dialyzed FBS, 0.19 µM | 102 | 99.7 | 46.1
HPLM + 10% dialyzed FBS, 0.569 µM | 97.2 | 96.3 | 36.6
HPLM + 10% dialyzed FBS, 1.71 µM | 93.9 | 95 | 26.5
HPLM + 10% dialyzed FBS, 5.12 µM | 60.8 | 73 | 21.4
HPLM + 10% dialyzed FBS, 15.4 µM | 49.7 | 65.5 | 17.3
HPLM + 10% dialyzed FBS, 46.1 µM | 51.1 | 37 | 5.83
RPMI 5 mM glucose + 10% FBS, 0.000781 µM | 101 | 107 | 52.6
RPMI 5 mM glucose + 10% FBS, 0.00234 µM | 107 | 103 | 65.8
RPMI 5 mM glucose + 10% FBS, 0.00702 µM | 96.7 | 111 | 50
RPMI 5 mM glucose + 10% FBS, 0.0211 µM | 107 | 112 | 54.7
RPMI 5 mM glucose + 10% FBS, 0.0632 µM | 111 | 88.8 | 37.4
RPMI 5 mM glucose + 10% FBS, 0.19 µM | 109 | 104 | 44.5
RPMI 5 mM glucose + 10% FBS, 0.569 µM | 107 | 91.9 | 36.2
RPMI 5 mM glucose + 10% FBS, 1.71 µM | 104 | 89.2 | 25.6
RPMI 5 mM glucose + 10% FBS, 5.12 µM | 87.9 | 60.2 | 19.5
RPMI 5 mM glucose + 10% FBS, 15.4 µM | 68.3 | 45.2 | 9.89
RPMI 5 mM glucose + 10% FBS, 46.1 µM | 58.6 | 30.4 | 8.79
RPMI 5 mM glucose + 10% dialyzed FBS, 0.000781 µM | 92.1 | 112 | 40.7
RPMI 5 mM glucose + 10% dialyzed FBS, 0.00234 µM | 99.9 | 112 | 58.3
RPMI 5 mM glucose + 10% dialyzed FBS, 0.00702 µM | 115 | 106 | 43.3
RPMI 5 mM glucose + 10% dialyzed FBS, 0.0211 µM | 96.1 | 107 | 41.6
RPMI 5 mM glucose + 10% dialyzed FBS, 0.0632 µM | 99 | 102 | 31.2
RPMI 5 mM glucose + 10% dialyzed FBS, 0.19 µM | 102 | 107 | 34.6
RPMI 5 mM glucose + 10% dialyzed FBS, 0.569 µM | 100 | 97.8 | 32.7
RPMI 5 mM glucose + 10% dialyzed FBS, 1.71 µM | 92.3 | 91.3 | 27.2
RPMI 5 mM glucose + 10% dialyzed FBS, 5.12 µM | 79.7 | 67.1 | 19.8
RPMI 5 mM glucose + 10% dialyzed FBS, 15.4 µM | 63.1 | 46.3 | 10.5
RPMI 5 mM glucose + 10% dialyzed FBS, 46.1 µM | 53.4 | 29.4 | 5.75

Cn1cnc(N)c2ncnc1-2
AUC of viability dose-response curve
Settings | NOMO1 [3] | P12-Ichikawa [1] | SEM cells [2]
HPLM + 10% dialyzed FBS | 375 | 396 | 367
RPMI 5 mM glucose + 10% FBS | 406 | 395 | 326
RPMI 5 mM glucose + 10% dialyzed FBS | 398 | 399 | 362

cell viability [%]
Settings | NOMO1 [6] | P12-Ichikawa [4] | SEM cells [5]
HPLM + 10% dialyzed FBS, 0.000781 µM | 111 | 110 | 80.5
HPLM + 10% dialyzed FBS, 0.00234 µM | 130 | 116 | 96.4
HPLM + 10% dialyzed FBS, 0.00702 µM | 108 | 125 | 111
HPLM + 10% dialyzed FBS, 0.0211 µM | 117 | 127 | 103
HPLM + 10% dialyzed FBS, 0.0632 µM | 139 | 115 | 109
HPLM + 10% dialyzed FBS, 0.19 µM | 92.4 | 116 | 88.9
HPLM + 10% dialyzed FBS, 0.569 µM | 139 | 124 | 112
HPLM + 10% dialyzed FBS, 1.71 µM | 80.3 | 110 | 80.3
HPLM + 10% dialyzed FBS, 5.12 µM | 63.5 | 88.5 | 32
HPLM + 10% dialyzed FBS, 15.4 µM | 11.5 | 5.12 | 5
HPLM + 10% dialyzed FBS, 46.1 µM | 6.59 | 4.04 | 4.54
RPMI 5 mM glucose + 10% FBS, 0.000781 µM | 99.7 | 97.1 | 90.9
RPMI 5 mM glucose + 10% FBS, 0.00234 µM | 113 | 119 | 99
RPMI 5 mM glucose + 10% FBS, 0.00702 µM | 117 | 114 | 92.9
RPMI 5 mM glucose + 10% FBS, 0.0211 µM | 119 | 117 | 87.1
RPMI 5 mM glucose + 10% FBS, 0.0632 µM | 131 | 121 | 87.8
RPMI 5 mM glucose + 10% FBS, 0.19 µM | 111 | 114 | 99.5
RPMI 5 mM glucose + 10% FBS, 0.569 µM | 118 | 126 | 87.2
RPMI 5 mM glucose + 10% FBS, 1.71 µM | 117 | 113 | 63.6
RPMI 5 mM glucose + 10% FBS, 5.12 µM | 94.7 | 83.6 | 14.7
RPMI 5 mM glucose + 10% FBS, 15.4 µM | 18.5 | 6.1 | 4.31
RPMI 5 mM glucose + 10% FBS, 46.1 µM | 9.02 | 3.21 | 3.65
RPMI 5 mM glucose + 10% dialyzed FBS, 0.000781 µM | 102 | 97.9 | 108
RPMI 5 mM glucose + 10% dialyzed FBS, 0.00234 µM | 124 | 109 | 109
RPMI 5 mM glucose + 10% dialyzed FBS, 0.00702 µM | 118 | 117 | 115
RPMI 5 mM glucose + 10% dialyzed FBS, 0.0211 µM | 130 | 128 | 84.9
RPMI 5 mM glucose + 10% dialyzed FBS, 0.0632 µM | 135 | 123 | 112
RPMI 5 mM glucose + 10% dialyzed FBS, 0.19 µM | 113 | 130 | 98.6
RPMI 5 mM glucose + 10% dialyzed FBS, 0.569 µM | 120 | 124 | 118
RPMI 5 mM glucose + 10% dialyzed FBS, 1.71 µM | 118 | 113 | 82.6
RPMI 5 mM glucose + 10% dialyzed FBS, 5.12 µM | 79.7 | 91.9 | 24.8
RPMI 5 mM glucose + 10% dialyzed FBS, 15.4 µM | 19.3 | 7.88 | 5.27
RPMI 5 mM glucose + 10% dialyzed FBS, 46.1 µM | 11.9 | 3.87 | 4.09
